In PMC5557014 (Biochemical pharmacology, 2017):

Tests used:
HIV-1 RT M184I = experiment: Mutant HIV-1 RT assay M184I; assay type: biochemical; conditions: Poly rC.dG [^3H]dGTP
HIV-1 RT Y115F = experiment: Mutant HIV-1 RT assay Y115F; assay type: biochemical; conditions: Poly rC.dG [^3H]dGTP
[1] = biological target: T1, cellular DNA polymerase α (Homo sapiens, UniProt P09884); experiment: Cellular DNA polymerase α assay; assay type: biochemical
T1 sequence (P09884 1-1462): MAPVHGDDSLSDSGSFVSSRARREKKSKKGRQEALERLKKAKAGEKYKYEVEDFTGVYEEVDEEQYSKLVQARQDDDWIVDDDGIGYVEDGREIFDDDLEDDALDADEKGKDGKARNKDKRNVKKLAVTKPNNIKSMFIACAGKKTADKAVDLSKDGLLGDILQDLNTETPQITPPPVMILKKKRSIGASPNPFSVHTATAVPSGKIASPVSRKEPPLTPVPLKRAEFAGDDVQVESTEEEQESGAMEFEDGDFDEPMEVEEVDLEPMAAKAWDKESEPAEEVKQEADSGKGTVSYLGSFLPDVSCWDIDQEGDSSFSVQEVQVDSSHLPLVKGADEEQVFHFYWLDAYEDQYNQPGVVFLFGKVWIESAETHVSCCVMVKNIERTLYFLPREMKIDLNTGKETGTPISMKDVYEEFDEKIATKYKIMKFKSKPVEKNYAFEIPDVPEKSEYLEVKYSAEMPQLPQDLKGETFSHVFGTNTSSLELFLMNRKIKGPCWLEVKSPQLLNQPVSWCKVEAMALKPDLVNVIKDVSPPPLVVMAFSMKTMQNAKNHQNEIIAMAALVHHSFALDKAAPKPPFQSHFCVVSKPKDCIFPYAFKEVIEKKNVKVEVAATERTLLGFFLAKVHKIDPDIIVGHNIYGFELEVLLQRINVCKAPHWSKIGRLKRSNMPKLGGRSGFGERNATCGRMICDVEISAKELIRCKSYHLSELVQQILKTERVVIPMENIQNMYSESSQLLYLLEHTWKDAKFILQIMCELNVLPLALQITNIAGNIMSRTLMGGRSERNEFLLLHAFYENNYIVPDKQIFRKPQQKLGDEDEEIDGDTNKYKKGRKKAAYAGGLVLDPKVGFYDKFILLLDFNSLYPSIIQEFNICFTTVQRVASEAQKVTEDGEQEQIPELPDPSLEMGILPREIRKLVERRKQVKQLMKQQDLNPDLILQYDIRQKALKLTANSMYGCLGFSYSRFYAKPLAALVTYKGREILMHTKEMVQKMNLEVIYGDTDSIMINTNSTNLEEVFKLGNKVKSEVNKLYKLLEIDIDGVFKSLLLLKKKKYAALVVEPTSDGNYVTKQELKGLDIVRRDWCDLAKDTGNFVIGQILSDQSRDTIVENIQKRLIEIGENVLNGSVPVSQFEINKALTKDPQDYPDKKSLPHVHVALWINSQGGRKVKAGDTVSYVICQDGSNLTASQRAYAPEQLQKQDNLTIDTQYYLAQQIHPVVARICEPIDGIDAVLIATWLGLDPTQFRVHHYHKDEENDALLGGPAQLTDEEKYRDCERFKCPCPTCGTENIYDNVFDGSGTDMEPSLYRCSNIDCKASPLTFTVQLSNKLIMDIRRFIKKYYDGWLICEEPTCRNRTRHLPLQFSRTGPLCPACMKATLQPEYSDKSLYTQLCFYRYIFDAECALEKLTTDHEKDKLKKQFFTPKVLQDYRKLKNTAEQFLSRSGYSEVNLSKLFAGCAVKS

HSV-1 DNA polymerase [2] = biological target: T2, HSV-1 DNA polymerase (Human herpesvirus 1, UniProt P04293); experiment: biochemical; assay type: biochemical; conditions: varying dGTP, calf thymus DNA
HIV-1 RT E138K = experiment: Mutant HIV-1 RT assay E138K; assay type: biochemical; conditions: Poly rC.dG [^3H]dGTP
HIV-1 RT V106A = conditions: Poly rC.dG [^3H]dGTP
HIV-1 RT L100I = conditions: Poly rC.dG [^3H]dGTP
HIV-1 RT M184V + Y115F = experiment: Mutant HIV-1 RT assay M184V + Y115F; assay type: biochemical; conditions: Poly rC.dG [^3H]dGTP
HIV-1 RT K70E = experiment: Mutant HIV-1 RT assay K70E; assay type: biochemical; conditions: Poly rC.dG [^3H]dGTP
HIV-1 RT M184V = experiment: Mutant HIV-1 RT assay M184V; assay type: biochemical; conditions: Poly rC.dG [^3H]dGTP
[3] = biological target: cellular DNA polymerase β (Homo sapiens, UniProt P06746); experiment: Cellular DNA polymerase β assay; assay type: biochemical
HSV-1 DNA polymerase [4] = biological target: T2, HSV-1 DNA polymerase; experiment: HSV-1 DNA polymerase enzyme assay; assay type: biochemical; conditions: IC50 HSV-1 DNA pol, calf thymus DNA
HIV-1 RT K103N = conditions: Poly rC.dG [^3H]dGTP
HCMV DNA polymerase [5] = biological target: T3, HCMV DNA polymerase (Human cytomegalovirus, UniProt P08546); experiment: HCMV DNA polymerase enzyme assay; assay type: biochemical; conditions: IC50 HCMV DNA pol, calf thymus DNA
HIV-1 RT = HIV-1 RT (Human immunodeficiency virus type 1 group M subtype B, UniProt P04585); experiment: Gel-based HIV-1 RT-catalyzed DNA synthesis on heteropolymeric DNA; assay type: biochemical
HIV-1 RT K70Q = experiment: Mutant HIV-1 RT assay K70Q; assay type: biochemical; conditions: Poly rC.dG [^3H]dGTP
HIV-1 RT M184V + E138K = experiment: Mutant HIV-1 RT assay M184V + E138K; assay type: biochemical; conditions: Poly rC.dG [^3H]dGTP
HIV-1 RT K65R = experiment: Mutant HIV-1 RT assay K65R; assay type: biochemical; conditions: Poly rC.dG [^3H]dGTP
HIV-1 RT Q151M = experiment: Mutant HIV-1 RT assay Q151M; assay type: biochemical; conditions: Poly rC.dG [^3H]dGTP
HIV-1 RT K70R = experiment: Mutant HIV-1 RT assay K70R; assay type: biochemical; conditions: Poly rC.dG [^3H]dGTP
HIV-1 RT F61A = experiment: Mutant HIV-1 RT assay F61A; assay type: biochemical; conditions: Poly rC.dG [^3H]dGTP
HCMV DNA polymerase [6] = biological target: T3, HCMV DNA polymerase; experiment: Kinetic analysis of HCMV DNA polymerase inhibition; assay type: biochemical; conditions: varying dGTP, calf thymus DNA
HIV-1 RT V75I = experiment: Mutant HIV-1 RT assay V75I; assay type: biochemical; conditions: Poly rC.dG [^3H]dGTP

T2 sequence (P04293 whole entry): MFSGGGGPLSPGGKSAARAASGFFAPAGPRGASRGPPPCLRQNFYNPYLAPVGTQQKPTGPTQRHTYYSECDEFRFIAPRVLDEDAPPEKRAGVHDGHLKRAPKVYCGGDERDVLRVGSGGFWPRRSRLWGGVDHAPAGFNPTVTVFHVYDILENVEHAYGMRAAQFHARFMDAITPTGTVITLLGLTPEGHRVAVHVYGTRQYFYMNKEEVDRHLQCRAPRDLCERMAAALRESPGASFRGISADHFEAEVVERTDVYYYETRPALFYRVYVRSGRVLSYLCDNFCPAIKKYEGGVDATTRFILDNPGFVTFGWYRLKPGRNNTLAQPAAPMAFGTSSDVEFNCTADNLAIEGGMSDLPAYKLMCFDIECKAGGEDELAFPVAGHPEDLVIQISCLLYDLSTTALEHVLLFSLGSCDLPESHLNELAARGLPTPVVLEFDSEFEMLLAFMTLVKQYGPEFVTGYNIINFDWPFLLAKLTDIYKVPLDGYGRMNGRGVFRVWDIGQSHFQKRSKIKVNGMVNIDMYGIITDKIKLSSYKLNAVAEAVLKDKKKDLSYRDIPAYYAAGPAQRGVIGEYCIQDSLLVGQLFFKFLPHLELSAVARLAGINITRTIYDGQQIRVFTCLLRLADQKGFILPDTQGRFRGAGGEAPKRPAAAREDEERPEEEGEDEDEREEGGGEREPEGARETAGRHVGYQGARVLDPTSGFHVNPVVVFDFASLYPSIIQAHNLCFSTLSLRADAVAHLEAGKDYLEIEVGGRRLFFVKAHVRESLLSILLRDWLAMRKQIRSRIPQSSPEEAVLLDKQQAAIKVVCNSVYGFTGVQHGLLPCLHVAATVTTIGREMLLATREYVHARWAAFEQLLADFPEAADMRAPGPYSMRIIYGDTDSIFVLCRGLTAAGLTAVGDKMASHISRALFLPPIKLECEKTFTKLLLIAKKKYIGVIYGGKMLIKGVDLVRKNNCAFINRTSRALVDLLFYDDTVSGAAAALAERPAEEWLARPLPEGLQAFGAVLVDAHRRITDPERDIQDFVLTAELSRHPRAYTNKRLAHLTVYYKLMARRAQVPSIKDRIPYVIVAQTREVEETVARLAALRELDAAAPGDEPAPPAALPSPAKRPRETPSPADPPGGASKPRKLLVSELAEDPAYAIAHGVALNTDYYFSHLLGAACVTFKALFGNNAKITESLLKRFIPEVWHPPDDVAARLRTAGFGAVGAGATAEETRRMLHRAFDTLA
T3 sequence (P08546 whole entry): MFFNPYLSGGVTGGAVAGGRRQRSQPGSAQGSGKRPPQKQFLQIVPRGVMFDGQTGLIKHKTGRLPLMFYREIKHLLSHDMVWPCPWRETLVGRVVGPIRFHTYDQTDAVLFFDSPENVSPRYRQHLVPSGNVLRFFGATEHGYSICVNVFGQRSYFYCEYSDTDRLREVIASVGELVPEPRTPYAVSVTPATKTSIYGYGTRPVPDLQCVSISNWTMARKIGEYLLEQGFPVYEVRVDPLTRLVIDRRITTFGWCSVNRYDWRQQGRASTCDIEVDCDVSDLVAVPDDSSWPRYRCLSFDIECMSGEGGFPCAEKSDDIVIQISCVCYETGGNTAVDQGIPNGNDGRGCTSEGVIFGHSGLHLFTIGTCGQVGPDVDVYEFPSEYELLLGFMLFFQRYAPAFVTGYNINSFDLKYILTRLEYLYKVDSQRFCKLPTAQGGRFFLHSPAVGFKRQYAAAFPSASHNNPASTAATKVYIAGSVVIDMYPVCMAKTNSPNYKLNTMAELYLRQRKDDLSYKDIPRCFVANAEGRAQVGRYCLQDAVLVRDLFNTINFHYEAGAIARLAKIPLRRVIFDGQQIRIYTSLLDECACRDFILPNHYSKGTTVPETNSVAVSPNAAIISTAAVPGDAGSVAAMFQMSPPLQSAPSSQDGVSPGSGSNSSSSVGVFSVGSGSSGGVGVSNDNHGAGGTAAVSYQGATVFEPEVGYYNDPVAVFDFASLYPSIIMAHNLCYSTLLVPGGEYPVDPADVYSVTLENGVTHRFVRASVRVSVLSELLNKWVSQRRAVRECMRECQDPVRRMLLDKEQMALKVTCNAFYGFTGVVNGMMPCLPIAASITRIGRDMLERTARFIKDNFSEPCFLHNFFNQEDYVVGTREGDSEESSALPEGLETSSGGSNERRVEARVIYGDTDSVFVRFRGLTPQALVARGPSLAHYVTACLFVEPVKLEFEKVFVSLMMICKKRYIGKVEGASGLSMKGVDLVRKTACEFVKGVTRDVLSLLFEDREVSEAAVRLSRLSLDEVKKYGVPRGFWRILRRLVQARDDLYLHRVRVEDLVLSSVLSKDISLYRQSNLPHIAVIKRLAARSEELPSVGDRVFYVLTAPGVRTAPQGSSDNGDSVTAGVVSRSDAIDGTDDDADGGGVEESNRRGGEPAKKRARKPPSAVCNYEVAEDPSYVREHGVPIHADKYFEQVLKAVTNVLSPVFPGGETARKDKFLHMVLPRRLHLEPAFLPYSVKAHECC

## Nc1nc2c(ncn2[C@@H]2CC[C@H](OC(C(=O)O)P(=O)(O)O)C2)c(=O)[nH]1 (mixture of isomers) [(L,D)-(±)G-α-CNP, cis-9-{4-[Carboxy(phosphono)methoxy]cyclopentan-1-yl}guanine]
HIV-1 RT M184I
  Fold-resistance compared to wild-type: 19 fold
HIV-1 RT Y115F
  Fold-resistance compared to wild-type: 2.3 fold
[1]
  IC50: 477 ± 83 µM
HSV-1 DNA polymerase [2]; competitive model
  Ki: 0.521 µM
HSV-1 DNA polymerase [2]; mixed model enzyme inhibition
  Ki: 9.28 µM
HSV-1 DNA polymerase [2]; non-competitive model
  Ki: 4.17 µM
HSV-1 DNA polymerase [2]
  Most likely mode of inhibition: Non-competitive
  α (alpha-value), mixed model enzyme inhibition: 0.386
HIV-1 RT E138K
  Fold-resistance compared to wild-type: 0.9 fold
HIV-1 RT V106A
  Fold-resistance compared to wild-type: 1.6 fold
HIV-1 RT L100I
  Fold-resistance compared to wild-type: 5.2 fold
HIV-1 RT M184V + Y115F
  Fold-resistance compared to wild-type: 39 fold
HIV-1 RT K70E
  Fold-resistance compared to wild-type: 0.7 fold
HIV-1 RT M184V
  Fold-resistance compared to wild-type: 8.7 fold
[3]
  IC50: 531 ± 5 µM
HSV-1 DNA polymerase [4]; [^3H]dGTP
  IC50: 8 ± 6 µM
HSV-1 DNA polymerase [4]; [^3H]dTTP
  IC50: 32 ± 11 µM
HIV-1 RT K103N
  Fold-resistance compared to wild-type: 1.1 fold
HCMV DNA polymerase [5]; [^3H]dGTP
  IC50: 9.4 ± 0.2 µM
HCMV DNA polymerase [5]; [^3H]dTTP
  IC50: 16 ± 8 µM
HIV-1 RT
  IC50: 1.8 ± 1.1 µM
HIV-1 RT K70Q
  Fold-resistance compared to wild-type: 0.7 fold
HIV-1 RT M184V + E138K
  Fold-resistance compared to wild-type: 6.1 fold
HIV-1 RT K65R
  Fold-resistance compared to wild-type: 2.1 fold
HIV-1 RT Q151M
  Fold-resistance compared to wild-type: 3.1 fold
HIV-1 RT K70R
  Fold-resistance compared to wild-type: 2.6 fold
HIV-1 RT F61A
  Fold-resistance compared to wild-type: 79 fold
HCMV DNA polymerase [6]; competitive model
  Ki: 2.12 µM
HCMV DNA polymerase [6]; mixed model enzyme inhibition
  Ki: 9.2 µM
HCMV DNA polymerase [6]; non-competitive model
  Ki: 8.59 µM
HCMV DNA polymerase [6]
  Most likely mode of inhibition: Non-competitive
HCMV DNA polymerase [6]; listed as (D,L)-(−,+)-G-α-CNP
  α (alpha-value), mixed model enzyme inhibition: 0.904
HIV-1 RT V75I
  Fold-resistance compared to wild-type: 8.7 fold
